Data set [1] has as its system spontaneously hypertensive male rats. Put plainly: Blood pressure depressing action (systolic pressure). Type of data set: in vivo. The note with it: 3.0 mg/kg oral. From the text:
The testing or control compound was orally administered to the indicated number (N) of spontaneously hypertensive male rats (15 or more weeks old).

The nature of data set [2]: Acute toxicity (oral, Litchfield-Wilcoxon method). The note with it: mouse, in vivo, dd mice, observation for 72 hours. The method, then:
Male and female dd mice were used (weight: 18-20 g). Each of compounds to be tested was dissolved in 1% Nikkol and administered directly into stomach by forced oral administration and with use of a metal sonde. LD50 of the compounds were calculated by Litchfield-Wilcoxon method, after observation for 72 hours.

The conditions of data set [3]: related arts; cited from earlier work.
The test system of a further data set is diastolic blood pressure. Put plainly: Effect of compounds on diastolic blood pressure in anesthetized dogs. Type of data set: in vivo, mongrel dogs. The note with it: 1 μg/kg, i.v. As for the experimental part:
(§1) An experiment was carried out by anesthetizing adult male and female mongrel dogs (weight; 10-20 kg) with Nembutal (30 mg/kg i.p.) and artificially respiring (20 ml/kg/stroke, 20 strokes/min) the animals.
(§2) Right vertebral and femoral arteries were exposed and each probe of electro-magnetic flow meter was fitted therein to measure vertebral and femoral arterial blood flow. A cannula was inserted into descending aorta from left femoral artery in order to measure blood pressure by pressure transducer connected to amplifier. Each of test compounds dissolved in 50% ethanol solution (1 μg/kg, i.v.) was administered from the cannula into cephlic vein.

In data set [4] the test system is spiral strip of New Zealand white rabbit aorta. The data set can be described thus: Ca antagonistic effect (Magnus method, Ca-induced contraction after K depolarization). The data set is classed as cell-based. The method, then: Ca antagonistic effect was examined on a spiral strip of New Zealand white rabbit aorta with the Magnus method. The response of preparations was recorded isometically on a recorder. […] The data given in following Table 1 are presented as inhibitory % to concentration without the compound.

In data set [5] the test system is femoral arterial blood flow. Put plainly: Effect of compounds on femoral arterial blood flow in anesthetized dogs. The data set is classed as in vivo, mongrel dogs. As to conditions: 1 μg/kg, i.v. The method, then: as §1, §2
Data set [6] relates to vertebral arterial blood flow. Put plainly: Vertebral and femoral arterial blood flow increasing action (ED50). The data set is classed as in vivo. The note with it: Canis lupus familiaris, iv; amount required to increase the vertebral arterial blood flow by 50%, anesthetized dogs. As for the experimental part: The bloodflow increasing action of the compounds was measured on anesthetized dogs, in a manner similar to that of Pharmaceutical Test Example 3, to obtain the results shown in Table 6 below:
ED50 in the Table indicates the amount of the compound required to increase the vertebral arterial blood flow by 50%.

Data set [7] has as its system vertebral arterial blood flow. The data set can be described thus: Effect of compounds on vertebral arterial blood flow in anesthetized dogs. Type of data set: in vivo, mongrel dogs. As to conditions: 1 μg/kg, i.v. The method, then: as §1, §2
The next data set deals with left atrium. The data set can be described thus: Negative inotropic effect on electrically driven left atrium. Type of data set: cell-based, New Zealand white rabbit. The note with it: Oryctolagus cuniculus; for inhibition at 100 µM: Concentration of the compound 10^-4 mol; for inhibition at 10 µM: Concentration of the compound 10^-5 mol; for IC50: read-out: ID50 (× 10^-4). As for the experimental part:
New Zealand white rabbit was killed by bleeding from the carotid artery and the left atrium was quickly removed. […] The response of preparations was recorded isometically on a recorder. The initial tension applied to the preparation was adjusted to 1 g.

[8] abbreviates: compound 10^-7 mol, Concentration of Ca ion 2.5 mM.
[9] abbreviates: compound 10^-7 mol, Concentration of Ca ion 5.0 mM.
Where [10] appears, read: compound 10^-8 mol, Concentration of Ca ion 2.5 mM.
Where [11] appears, read: compound 10^-8 mol, Concentration of Ca ion 5.0 mM.
Setting [12] is: negative inotropic effect, compound concentrations in the table in mol.

Entries after “also recorded” stand apart in the source; their conditions may differ. Where two headings read alike, the source gives them in different places.

In the case of `COC(=O)C1=C(C)NC(C)=C(C(=O)OCCN(C)Cc2ccccc2)C1c1cccc([N+](=O)[O-])c1` (centres unmarked) [Nicardipine, 1,4-dihydro-2,6-dimethyl-4-(3-nitrophenyl)-pyridine-3,5-dicarboxylic acid 3-2-(N-benzyl-N-methylamino)ethyl 5-methyl ester], the “Systolic pressure (change from pre-value)” value in data set [1] (1 hr) is reported as -10.0 ± 2.28 mm Hg; in [1] (2 hr), -5.7 ± 1.61 mm Hg; in [1] (4 hr), -3.0 ± 2.01 mm Hg; in data set [1] (6 hr), -1.0 ± 1.50 mm Hg; in [1] (24 hr), -4.2 ± 1.88 mm Hg. This compound also gave an LD50 at 72 h in data set [2] of 305 mg/kg. Moreover, the “effect on cerebral blood flow” value in data set [3] is given as “high cerebral blood flow increasing action”. Besides, the “Change (%) DBP” value in the data set with diastolic blood pressure is -10 ± 1%. Moreover, the “Inhibitory (%)” value came out at 90.9 ± 12.06% in data set [4] (setting [8]), 83.2 ± 15.93% in data set [4] (setting [9]), 26.5 ± 18.40% in data set [4] (setting [10]) and 16.3 ± 21.28% in data set [4] (setting [11]). In data set [5], the “Change (%) FABF” value came out at 14 ± 5%. Further, in data set [6], the ED50 came to 0.0042 mg/kg. For the same compound, the “Change (%) VABF” value in data set [7] was 32 ± 7%. The inhibition at 100 µM in the data set with left atrium (read-out: Change (%)) stood at 25.6%. Besides, the inhibition at 10 µM in the data set with left atrium (read-out: Change (%)) stood at 13.5%. In addition, the inhibition at 1 µM in the data set on left atrium (Concentration of the compound 10^-6 mol, read-out: Change (%)) turned out to be 3.4%. Further, the IC50 in the data set with left atrium (setting [12]) is 34 µM.

`CC1=C(C(=O)OCCN(C)Cc2ccccc2)C(c2cccc([N+](=O)[O-])c2)C(C(=O)OCC2CC2)=C(C)N1` (centres unmarked) [Example 1, 3-cyclopropylmethyl 5-[2-(N-benzyl-N-methylamino)ethyl] 1,4-dihydro-2,6-dimethyl-4-(3-nitrophenyl)pyridine-3,5-dicarboxylate]: in data set [2], the LD50 at 72 h worked out at 211 mg/kg. Further, the “Change (%) DBP” value with diastolic blood pressure was -9 ± 1%. Moreover, the “Inhibitory (%)” value was 94.7 ± 3.72% in data set [4] (setting [8]), over 100% in [4] (setting [9]), 76.1 ± 6.62% in data set [4] (setting [10]) and 81.3 ± 5.46% in [4] (setting [11]). The “Change (%) FABF” value in data set [5] was found to be 25 ± 8%. Moreover, the “Change (%) VABF” value in [7] turned out to be 51 ± 13%. The inhibition at 100 µM in the data set with left atrium (read-out: Change (%)) was found to be 15.7%. In the data set with left atrium (read-out: Change (%)), the inhibition at 10 µM was determined as 7.4%. In addition, the IC50 in the data set with left atrium (setting [12]) turned out to be 320 µM.

`CC1=C(C(=O)OCCN(C)Cc2ccc(Cl)cc2)C(c2cccc([N+](=O)[O-])c2)C(C(=O)OCC2CC2)=C(C)N1` (centres unmarked) [Example 3, 3-[2-[N-(4-chlorobenzyl)-N-methylamino]ethyl] 5-cyclopropylmethyl 1,4-dihydro-2,6-dimethyl-4-(3-nitrophenyl)pyridine-3,5-dicarboxylate]: the “Change (%) DBP” value with diastolic blood pressure is -8 ± 1%. In addition, the “Change (%) FABF” value in data set [5] was found to be 23 ± 8%. In addition, in data set [7], the “Change (%) VABF” value is 56 ± 12%.

Regarding `COC(=O)C1=C(C)NC(C)=C(C(=O)OC)C1c1ccccc1[N+](=O)[O-]` [Nifedipine, dimethyl ester of 1,4-dihydro-2,6-dimethyl-4-(2-nitropheny)pyridine-3,5-dicarboxylic acid], the “Systolic pressure (change from pre-value)” value is on record as -19.3 ± 4.41 mm Hg in data set [1] (1 hr); -10.6 ± 3.14 mm Hg in data set [1] (2 hr); -4.3 ± 2.70 mm Hg in data set [1] (4 hr); -0.1 ± 1.56 mm Hg in data set [1] (6 hr); -1.1 ± 1.06 mm Hg in data set [1] (24 hr). Besides, the “effect on cerebral blood flow” value in data set [3] is listed as “tendency of causing a relative decrease on cerebral blood flow”. For the same compound, the pharmaceutical activities entry in data set [3] was “coronary vasodilating action, blood pressure depressing action; also recorded: powerful depressing action”. In addition, the “Inhibitory (%)” value in data set [4] (setting [8]) is listed as over 100%; in data set [4] (setting [9]), over 100%; in data set [4] (setting [10]), 63.5 ± 7.33%; in data set [4] (setting [11]), 62.3 ± 7.91%. Further, the IC50 in the data set with left atrium is 120 µM. Further, the inhibition at 100 µM with left atrium (read-out: Change (%)) turned out to be 19%. In the data set with left atrium (read-out: Change (%)), the inhibition at 10 µM was 9.5%.

As to `COc1ccc(CN(C)CCOC(=O)C2=C(C)NC(C)=C(C(=O)OCC3CC3)C2c2cccc([N+](=O)[O-])c2)cc1` (centres unmarked) [Example 4, 3-cyclopropylmethyl 5-[2-[N-(4-methoxybenzyl)-N-methylamino]ethyl] 1,4-dihydro-2,6-dimethyl-4-(3-nitrophenyl)pyridine-3,5-dicarboxylate], in the data set on diastolic blood pressure, the “Change (%) DBP” value is listed as -6 ± 1%. In addition, the “Change (%) FABF” value in data set [5] amounted to 19 ± 6%. The “Change (%) VABF” value in data set [7] is 33 ± 5%.

Broadly, the LD50 is the dose expected to kill half of the subjects tested. Low readings indicate a more toxic substance, high ones a less toxic substance. As a reminder, the ED50 is the midpoint of the dose-response relation. Read a high ED50 as weaker potency.

These data come from patent US4824855A, “1,4-dihydropyridine derivatives” (Sanwa Kagaku Kenkyusho Co., Ltd., priority 1985, dated 1989).
